System: SW 1271 complex spheroids, viability
Test: Anticancer human tumor SW 1271 cell line growth inhibition [LSD1];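 further: spheroids exposed to agents for 7 days before luminescence read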;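 on viability, T/C: 100% = DMSO vehicle control viability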
Settings: for IC50: curve of first compound; for viability, T/C: stronger effect = lower value
How it was run: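 Drug combinations with the LSD1 inhibitor iadademstat tested on tumor cells co-cultured as spheroids with endothelial cells and mesenchymal stem cells. Concentrations descended in half-log increments from clinical Cmax or 10 microM.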

[1] = second compound 0.1 µM, first compound 0.000316 µM
[2] = second compound 0.1 µM, first compound 0.001 µM
[3] = second compound 0.1 µM, first compound 0.00316 µM
[4] = second compound 0.1 µM, first compound 0.01 µM
[5] = second compound 0.1 µM, first compound 0.0316 µM
[6] = second compound 0.1 µM, first compound 0.1 µM
[7] = second compound 0.316 µM, first compound 0.000316 µM
[8] = second compound 0.316 µM, first compound 0.001 µM
[9] = second compound 0.316 µM, first compound 0.00316 µM
[10] = second compound 0.316 µM, first compound 0.01 µM
[11] = second compound 0.316 µM, first compound 0.0316 µM
[12] = second compound 0.316 µM, first compound 0.1 µM
[13] = second compound 1 µM, first compound 0.000316 µM
[14] = second compound 1 µM, first compound 0.001 µM
[15] = second compound 1 µM, first compound 0.00316 µM
[16] = second compound 1 µM, first compound 0.01 µM
[17] = second compound 1 µM, first compound 0.0316 µM
[18] = second compound 1 µM, first compound 0.1 µM
[19] = second compound 3.16 µM, first compound 0.000316 µM
[20] = second compound 3.16 µM, first compound 0.001 µM
[21] = second compound 3.16 µM, first compound 0.00316 µM
[22] = second compound 3.16 µM, first compound 0.01 µM
[23] = second compound 3.16 µM, first compound 0.0316 µM
[24] = second compound 3.16 µM, first compound 0.1 µM
[25] = second compound 10 µM, first compound 0.000316 µM
[26] = second compound 10 µM, first compound 0.001 µM
[27] = second compound 10 µM, first compound 0.00316 µM
[28] = second compound 10 µM, first compound 0.01 µM
[29] = second compound 10 µM, first compound 0.0316 µM
[30] = second compound 10 µM, first compound 0.1 µM
[31] = second compound 0.1 µM, first compound 0.00949 µM
[32] = second compound 0.1 µM, first compound 0.03 µM
[33] = second compound 0.1 µM, first compound 0.0949 µM
[34] = second compound 0.1 µM, first compound 0.3 µM
[35] = second compound 0.1 µM, first compound 0.949 µM
[36] = second compound 0.1 µM, first compound 3 µM
[37] = second compound 0.316 µM, first compound 0.00949 µM
[38] = second compound 0.316 µM, first compound 0.03 µM
[39] = second compound 0.316 µM, first compound 0.0949 µM
[40] = second compound 0.316 µM, first compound 0.3 µM
[41] = second compound 0.316 µM, first compound 0.949 µM
[42] = second compound 0.316 µM, first compound 3 µM
[43] = second compound 1 µM, first compound 0.00949 µM
[44] = second compound 1 µM, first compound 0.03 µM
[45] = second compound 1 µM, first compound 0.0949 µM
[46] = second compound 1 µM, first compound 0.3 µM
[47] = second compound 1 µM, first compound 0.949 µM
[48] = second compound 1 µM, first compound 3 µM
[49] = second compound 3.16 µM, first compound 0.00949 µM
[50] = second compound 3.16 µM, first compound 0.03 µM
[51] = second compound 3.16 µM, first compound 0.0949 µM
[52] = second compound 3.16 µM, first compound 0.3 µM
[53] = second compound 3.16 µM, first compound 0.949 µM
[54] = second compound 3.16 µM, first compound 3 µM
[55] = second compound 10 µM, first compound 0.00949 µM
[56] = second compound 10 µM, first compound 0.03 µM
[57] = second compound 10 µM, first compound 0.0949 µM
[58] = second compound 10 µM, first compound 0.3 µM
[59] = second compound 10 µM, first compound 0.949 µM
[60] = second compound 10 µM, first compound 3 µM

CC(C)CC(NC(=O)C(Cc1ccccc1)NC(=O)c1cnccn1)B(O)O (stereo not given) + NC1CCC(NC2CC2c2ccccc2)CC1
IC50 (second compound 0.1 µM): < 0.316 nM
IC50 (second compound 0.316 µM): < 0.316 nM
IC50 (second compound 1 µM): < 0.316 nM
IC50 (second compound 3.16 µM): < 0.316 nM
IC50 (second compound 10 µM): < 0.316 nM
viability, T/C [1]: 2.37%
viability, T/C [2]: 0.35%
viability, T/C [3]: 0.16%
viability, T/C [4]: 0.13%
viability, T/C [5]: 0.13%
viability, T/C [6]: 0.32%
viability, T/C [7]: 3.05%
viability, T/C [8]: 0.13%
viability, T/C [9]: 0.12%
viability, T/C [10]: 0.27%
viability, T/C [11]: 0.33%
viability, T/C [12]: 0.2%
viability, T/C [13]: 2.83%
viability, T/C [14]: 0.08%
viability, T/C [15]: 1.7%
viability, T/C [16]: 0.43%
viability, T/C [17]: 0.14%
viability, T/C [18]: 0.11%
viability, T/C [19]: 2.94%
viability, T/C [20]: 0.33%
viability, T/C [21]: 0.37%
viability, T/C [22]: 0.09%
viability, T/C [23]: 0.16%
viability, T/C [24]: 0.31%
viability, T/C [25]: 2.41%
viability, T/C [26]: 0.43%
viability, T/C [27]: 0.14%
viability, T/C [28]: 0.16%
viability, T/C [29]: 0.12%
viability, T/C [30]: 0.19%

CC(C)CC(NC(=O)CNC(=O)c1cc(Cl)ccc1Cl)B1OC(=O)CC(CC(=O)O)(C(=O)O)O1 (stereo not given) + NC1CCC(NC2CC2c2ccccc2)CC1
IC50 (second compound 0.1 µM): 4.95 nM
IC50 (second compound 0.316 µM): 4.94 nM
IC50 (second compound 1 µM): 5.09 nM
IC50 (second compound 3.16 µM): 5.19 nM
IC50 (second compound 10 µM): 5.23 nM
viability, T/C [1]: 93.8%
viability, T/C [2]: 88.8%
viability, T/C [3]: 78.4%
viability, T/C [4]: 5.55%
viability, T/C [5]: 0.31%
viability, T/C [6]: 0.44%
viability, T/C [7]: 92.7%
viability, T/C [8]: 90%
viability, T/C [9]: 78.1%
viability, T/C [10]: 5.75%
viability, T/C [11]: 0.88%
viability, T/C [12]: 0.13%
viability, T/C [13]: 78.5%
viability, T/C [14]: 80.4%
viability, T/C [15]: 83.8%
viability, T/C [16]: 6.04%
viability, T/C [17]: 0.34%
viability, T/C [18]: 0.23%
viability, T/C [19]: 93.7%
viability, T/C [20]: 93.9%
viability, T/C [21]: 81.4%
viability, T/C [22]: 8.6%
viability, T/C [23]: 0.51%
viability, T/C [24]: 0.36%
viability, T/C [25]: 85.3%
viability, T/C [26]: 79.2%
viability, T/C [27]: 86.2%
viability, T/C [28]: 6.72%
viability, T/C [29]: 0.65%
viability, T/C [30]: 0.38%

COc1cc(Nc2ncc3c(n2)-c2ccc(Cl)cc2C(c2c(F)cccc2OC)=NC3)ccc1C(=O)O + NC1CCC(NC2CC2c2ccccc2)CC1
IC50 (second compound 0.1 µM): 200 nM
IC50 (second compound 0.316 µM): 148 nM
IC50 (second compound 1 µM): 184 nM
IC50 (second compound 3.16 µM): 175 nM
IC50 (second compound 10 µM): 186 nM
viability, T/C [3]: 84.2%
viability, T/C [4]: 78.2%
viability, T/C [5]: 80.3%
viability, T/C [6]: 59.5%
viability, T/C (second compound 0.1 µM, first compound 0.316 µM): 42.9%
viability, T/C (second compound 0.1 µM, first compound 1 µM): 16%
viability, T/C [9]: 81.2%
viability, T/C [10]: 80.3%
viability, T/C [11]: 75.9%
viability, T/C [12]: 55.4%
viability, T/C (second compound 0.316 µM, first compound 0.316 µM): 36%
viability, T/C (second compound 0.316 µM, first compound 1 µM): 13.5%
viability, T/C [15]: 83.5%
viability, T/C [16]: 81.9%
viability, T/C [17]: 85.4%
viability, T/C [18]: 58.3%
viability, T/C (second compound 1 µM, first compound 0.316 µM): 40.4%
viability, T/C (second compound 1 µM, first compound 1 µM): 13.7%
viability, T/C [21]: 97.3%
viability, T/C [22]: 80.4%
viability, T/C [23]: 84.8%
viability, T/C [24]: 62.1%
viability, T/C (second compound 3.16 µM, first compound 0.316 µM): 36.3%
viability, T/C (second compound 3.16 µM, first compound 1 µM): 15.1%
viability, T/C [27]: 81.3%
viability, T/C [28]: 80.5%
viability, T/C [29]: 79.7%
viability, T/C [30]: 59.2%
viability, T/C (second compound 10 µM, first compound 0.316 µM): 40.7%
viability, T/C (second compound 10 µM, first compound 1 µM): 14.1%

Cn1ncnc1C1c2n[nH]c(=O)c3cc(F)cc(c23)NC1c1ccc(F)cc1 (stereo not given) + NC1CCC(NC2CC2c2ccccc2)CC1
IC50 (second compound 0.1 µM): > 100 nM
IC50 (second compound 0.316 µM): > 100 nM
IC50 (second compound 1 µM): > 100 nM
IC50 (second compound 3.16 µM): > 100 nM
IC50 (second compound 10 µM): > 100 nM
viability, T/C [1]: 93%
viability, T/C [2]: 104%
viability, T/C [3]: 88.4%
viability, T/C [4]: 94.9%
viability, T/C [5]: 88.6%
viability, T/C [6]: 90.4%
viability, T/C [7]: 86.9%
viability, T/C [8]: 98.3%
viability, T/C [9]: 103%
viability, T/C [10]: 91.8%
viability, T/C [11]: 82.8%
viability, T/C [12]: 86.8%
viability, T/C [13]: 91.7%
viability, T/C [14]: 90.9%
viability, T/C [15]: 83.5%
viability, T/C [16]: 84.3%
viability, T/C [17]: 85%
viability, T/C [18]: 83%
viability, T/C [19]: 83.4%
viability, T/C [20]: 87.7%
viability, T/C [21]: 79.9%
viability, T/C [22]: 98.1%
viability, T/C [23]: 76.5%
viability, T/C [24]: 93.2%
viability, T/C [25]: 98.6%
viability, T/C [26]: 86.7%
viability, T/C [27]: 83.5%
viability, T/C [28]: 88.1%
viability, T/C [29]: 85.3%
viability, T/C [30]: 81.7%

NS(=O)(=O)OCC1CC(n2ccc3c(NC4CCc5ccccc54)ncnc32)CC1O (stereo not given) + NC1CCC(NC2CC2c2ccccc2)CC1
IC50 (second compound 0.1 µM): > 3000 nM
IC50 (second compound 0.316 µM): > 3000 nM
IC50 (second compound 1 µM): > 3000 nM
IC50 (second compound 3.16 µM): > 3000 nM
IC50 (second compound 10 µM): > 3000 nM
viability, T/C [31]: 149%
viability, T/C [32]: 125%
viability, T/C [33]: 77.5%
viability, T/C [34]: 84.7%
viability, T/C [35]: 79.6%
viability, T/C [36]: 74.8%
viability, T/C [37]: 162%
viability, T/C [38]: 131%
viability, T/C [39]: 87.7%
viability, T/C [40]: 73.6%
viability, T/C [41]: 77.5%
viability, T/C [42]: 77.8%
viability, T/C [43]: 164%
viability, T/C [44]: 115%
viability, T/C [45]: 82.4%
viability, T/C [46]: 66.5%
viability, T/C [47]: 80.7%
viability, T/C [48]: 75.5%
viability, T/C [49]: 132%
viability, T/C [50]: 113%
viability, T/C [51]: 93.8%
viability, T/C [52]: 75.2%
viability, T/C [53]: 69.8%
viability, T/C [54]: 70.1%
viability, T/C [55]: 163%
viability, T/C [56]: 124%
viability, T/C [57]: 86.5%
viability, T/C [58]: 73.9%
viability, T/C [59]: 73.9%
viability, T/C [60]: 70.2%

O=C(C=Cc1cccc(S(=O)(=O)Nc2ccccc2)c1)NO + NC1CCC(NC2CC2c2ccccc2)CC1
IC50 (second compound 0.1 µM): 167 nM
IC50 (second compound 0.316 µM): 122 nM
IC50 (second compound 1 µM): 88.5 nM
IC50 (second compound 3.16 µM): 606 nM
IC50 (second compound 10 µM): 84.7 nM
viability, T/C [31]: 72.1%
viability, T/C [32]: 72.1%
viability, T/C [33]: 57.9%
viability, T/C [34]: 22.7%
viability, T/C [35]: 6.87%
viability, T/C [36]: 96%
viability, T/C [37]: 88.8%
viability, T/C [38]: 69.8%
viability, T/C [39]: 61.9%
viability, T/C [40]: 18.5%
viability, T/C [41]: 7.13%
viability, T/C [42]: 97.9%
viability, T/C [43]: 78.8%
viability, T/C [44]: 68.8%
viability, T/C [45]: 52.4%
viability, T/C [46]: 19.1%
viability, T/C [47]: 8.74%
viability, T/C [48]: 102%
viability, T/C [49]: 88.6%
viability, T/C [50]: 72.9%
viability, T/C [51]: 56.1%
viability, T/C [52]: 26.4%
viability, T/C [53]: 6.99%
viability, T/C [54]: 108%
viability, T/C [55]: 85.3%
viability, T/C [56]: 75.7%
viability, T/C [57]: 48.8%
viability, T/C [58]: 22.1%
viability, T/C [59]: 7.93%
viability, T/C [60]: 98.2%

From PubChem BioAssay AID1918941 (Molecular Pharmacology Branch, DTP, NCI, 2023)
